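1) Cells in 96-well plates. 2) Compound, 48 h, 5 concentrations. 3) Linear interpolation between surrounding doses. 4) Unreached endpoint = highest concentration. Abbreviation: GI50, concentration required for 50% inhibition of growth.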 Active and inactive are the calls of the source. Cut-off read from the data, not from the text of the source: active = GI50 up to about 1.1 µM and inactive = higher.
Experiments:
Test in all cases: NCI-60 cell line screen, 48 h
HT-29 = test system: HT-29
HOP-62 = test system: HOP-62
HL-60 = test system: HL-60
U-251 = test system: U-251
K562 = test system: K562
SW-620 = test system: SW-620
NCI-H460 = test system: NCI-H460
HOP-92 = test system: HOP-92
IGROV-1 = test system: IGROV-1
HCT-116 = test system: HCT-116
SR = test system: SR
SK-MEL-28 = test system: SK-MEL-28
SF-295 = test system: SF-295
NCI/ADR-RES = test system: NCI/ADR-RES
CCRF-CEM = test system: CCRF-CEM
MDA-N = test system: MDA-N
T47D = test system: T47D
OVCAR-5 = test system: OVCAR-5
OVCAR-8 = test system: OVCAR-8
UO-31 = test system: UO-31

Measured: GI50

COc1ccc(/C=C2\C=Cc3ccccc32)cc1OC
inactive: HT-29 88.3 µM | HOP-62 > 100 µM | HL-60 10.9 µM | U-251 76 µM | K562 29.8 µM | SW-620 > 100 µM | NCI-H460 > 100 µM | HOP-92 6.49 µM | IGROV-1 73.8 µM | HCT-116 91.2 µM | SR 50.9 µM | SK-MEL-28 > 100 µM | SF-295 > 100 µM | NCI/ADR-RES > 100 µM | CCRF-CEM 57.1 µM | MDA-N > 100 µM | T47D 47.3 µM | OVCAR-5 > 100 µM | OVCAR-8 > 100 µM

CC[C@H](NC(=O)OC(C)(C)C)C(=O)NCP(=O)(OCc1ccc([N+](=O)[O-])cc1)OCc1ccc([N+](=O)[O-])cc1
inactive: HT-29 17.7 µM | HOP-62 38.4 µM | UO-31 14.8 µM | HL-60 18.2 µM | U-251 21.6 µM | SW-620 40.6 µM | NCI-H460 27.8 µM | HOP-92 31.5 µM | IGROV-1 38.5 µM | HCT-116 27.7 µM | SR 26.9 µM | SK-MEL-28 28.4 µM | SF-295 13.7 µM | NCI/ADR-RES 33.1 µM | CCRF-CEM 21.6 µM | MDA-N 28.6 µM | T47D 63 µM | OVCAR-5 48.2 µM | OVCAR-8 30.5 µM

NC(=S)N/N=C\CC(O)(C(F)(F)F)C(F)(F)F
inactive: HT-29 > 10 µM | HOP-62 > 10 µM | UO-31 > 10 µM | HL-60 > 10 µM | U-251 > 10 µM | K562 > 10 µM | SW-620 > 10 µM | NCI-H460 > 10 µM | HOP-92 > 10 µM | IGROV-1 > 10 µM | HCT-116 > 10 µM | SR > 10 µM | SK-MEL-28 > 10 µM | SF-295 > 10 µM | NCI/ADR-RES > 10 µM | CCRF-CEM > 10 µM | MDA-N > 10 µM | T47D > 10 µM | OVCAR-8 > 10 µM

CCOC(=O)NN(C(=O)OCC)C(=C(C1=CCCCC1)N1CCOCC1)N(NC(=O)OCC)C(=O)OCC
inactive: HT-29 > 100 µM | HOP-62 > 100 µM | UO-31 > 100 µM | HL-60 > 100 µM | U-251 > 100 µM | K562 > 100 µM | SW-620 > 100 µM | NCI-H460 > 100 µM | HOP-92 > 100 µM | IGROV-1 > 100 µM | SR > 100 µM | SK-MEL-28 > 100 µM | SF-295 > 100 µM | NCI/ADR-RES > 100 µM | MDA-N > 100 µM | T47D > 100 µM | OVCAR-5 > 100 µM | OVCAR-8 > 100 µM

C=C[C@]1(C)C[C@@H](OC(=O)CO)[C@@]2(C)[C@H](C)CC[C@]3(CCC(=O)[C@H]32)[C@@H](C)[C@@H]1O
inactive: HT-29 > 100 µM | HOP-62 71.8 µM | UO-31 > 63.5 µM | HL-60 49.8 µM | U-251 > 79.3 µM | K562 40 µM | SW-620 > 82.2 µM | NCI-H460 > 61.2 µM | HOP-92 > 86.1 µM | IGROV-1 > 91.2 µM | HCT-116 > 55.6 µM | SR > 43.4 µM | SK-MEL-28 > 74.1 µM | SF-295 > 76.4 µM | NCI/ADR-RES > 100 µM | MDA-N > 100 µM | T47D 99.5 µM | OVCAR-5 > 100 µM | OVCAR-8 > 100 µM

Nc1ccnc2c1ncn2[C@H]1C[C@H](O)[C@@H](CO)O1
inactive: HT-29 > 100 µM | HOP-62 > 100 µM | UO-31 > 100 µM | HL-60 > 100 µM | U-251 > 100 µM | SW-620 > 100 µM | NCI-H460 > 100 µM | HOP-92 > 100 µM | IGROV-1 > 100 µM | HCT-116 > 100 µM | SR > 100 µM | SK-MEL-28 > 100 µM | SF-295 > 100 µM | NCI/ADR-RES > 100 µM | CCRF-CEM > 100 µM | MDA-N > 100 µM | T47D > 100 µM | OVCAR-5 > 100 µM | OVCAR-8 > 100 µM

S=C(Nc1ccc(Br)cn1)NC12CC3CC(CC(C3)C1)C2
inactive: HOP-62 23.9 µM | UO-31 28.3 µM | U-251 11.3 µM | K562 > 100 µM | SW-620 49.2 µM | NCI-H460 28.5 µM | HOP-92 7.18 µM | IGROV-1 8.59 µM | HCT-116 10.7 µM | SR 36.1 µM | SK-MEL-28 39 µM | SF-295 17 µM | NCI/ADR-RES 17.4 µM | CCRF-CEM 25.4 µM | MDA-N 15.8 µM | T47D 49.1 µM | OVCAR-5 17.5 µM | OVCAR-8 7.57 µM

Cn1c2ccccc2c2c3c(c4c5ccccc5n(C5OC(CO)C(O)C(O)C5O)c4c21)C(=O)OC3=O (stereo not drawn)
inactive: HT-29 > 100 µM | HOP-62 > 100 µM | UO-31 > 100 µM | U-251 > 100 µM | K562 > 100 µM | SW-620 > 100 µM | NCI-H460 > 100 µM | HOP-92 > 100 µM | IGROV-1 > 100 µM | HCT-116 > 100 µM | SR > 100 µM | SK-MEL-28 > 100 µM | SF-295 > 100 µM | NCI/ADR-RES > 100 µM | CCRF-CEM > 100 µM | MDA-N > 100 µM | T47D 52.2 µM | OVCAR-5 > 100 µM | OVCAR-8 > 100 µM

CCCCCCCCCCCCCCCCCCNc1ccn(C2OC(COP(=O)(O)OCC3OC(n4cc(C)c(=O)[nH]c4=O)CC3N=[N+]=[N-])C(O)C2O)c(=O)n1 (stereo not drawn)
inactive: HT-29 19.2 µM | HOP-62 23.2 µM | UO-31 21 µM | U-251 16.7 µM | K562 18.7 µM | SW-620 22.5 µM | NCI-H460 21 µM | HOP-92 59.6 µM | IGROV-1 19.1 µM | HCT-116 39.7 µM | SR 18.4 µM | SK-MEL-28 18.6 µM | SF-295 18.3 µM | NCI/ADR-RES 21 µM | CCRF-CEM 15.5 µM | MDA-N 43.7 µM | T47D 34.8 µM | OVCAR-5 16.7 µM | OVCAR-8 21.8 µM

CC(=O)N1N=C(c2ccc3ccccc3c2O)CC1c1ccc(Cl)cc1Cl (stereo not drawn)
inactive: HT-29 28.7 µM | HOP-62 31.9 µM | UO-31 > 100 µM | U-251 18.3 µM | K562 7.69 µM | SW-620 26.9 µM | NCI-H460 12.3 µM | HOP-92 54.6 µM | IGROV-1 22.4 µM | HCT-116 16.7 µM | SR 5.21 µM | SK-MEL-28 93.1 µM | SF-295 31.6 µM | NCI/ADR-RES 57.7 µM | CCRF-CEM 3.91 µM | MDA-N 24.4 µM | T47D 26.9 µM | OVCAR-5 > 100 µM | OVCAR-8 59 µM

Reference: ChEMBL document CHEMBL1201862, “PubChem BioAssay data set” (2004)
